Laboratory results as given in patent publication US9744146B2, “Method for alleviating disturbance of bile acid metabolism, amino acid metabolism, and/or gut microbiota metabolism” (China Medical University, priority 2013, dated 2017).

Tests used:
bile acid metabolism = assay: Analysis of bile acid metabolism markers (glycine, taurine) by NMR in serum and urine of high-fat-diet mice; type: in vivo, C57BL6/J male mice; settings: gallic acid 100 mg/kg orally daily (the third group), 16-week-old
Procedure: (§1) The gallic acid is purchased from Sigma, U.S.A.
(§2) In addition, to ensure experimental stability, the mice in the first and second group were given water at a volume the same as that in the third and fourth group. At the age of 16-week-old, the urine of the mice was collected, and the concentration of the blood glucose and serum insulin were measured. Then, the mice were sacrificed, and the serum was collected for the analysis of metabolic markers. The liver was weighted and photographed.
(§3) The collected blood and urine were analyzed by a nuclear magnetic resonance spectrum. The steps are shown as follows. • (1) Urine: The urine (500 μl), PBS (50 μl) (81:19 vol/vol, comprising 0.2 M NaHPO4 and 0.2 M NaH2PO4, pH=7.4), 10% deuteroxide, and 0.03% trimethylsilyl propionate (TSP) were mixed in a micro-centrifuge tube and centrifuged with 13000 rpm for 20 minutes at 4° C. The supernatant (500 μl) was collected and analyzed by 600 MHz nuclear magnetic resonance (NMR, Bruker AVANCE 600AV) at 25° C. The 1D NOESY FID signal was transferred to a one-dimensional NMR spectrum of graphing through Fourier transform. • (2) Blood: The serum (250 μl) and deuteroxide (350 μl) were mixed in a micro-centrifuge tube and centrifuged with 13000 rpm for 20 minutes at 4° C. The supernatant (500 μl) was collected and analyzed. The metabolites in serum were analyzed by using NMR sequence CPMG.
It has been known that the concentration of taurine and glycine can be used as markers of bile acid metabolism (see Miyazaki T, Matsuzaki Y (2012) Taurine and liver diseases: a focus on the heterogeneous protective properties of taurine. Amino Acids, which is entirely incorporated hereinto by reference). Therefore, the integrated area of the spectrum of glycine (chemical shift 3.56 ppm singlet) and the taurine (chemical shift 3.40 ppm triplet) in the blood and urine were analyzed.

amino acid metabolism = assay: Analysis of amino acid metabolism markers by NMR in serum of high-fat-diet mice; type: in vivo, C57BL6/J male mice; settings: gallic acid 100 mg/kg orally daily (the third group)
Procedure: as §1, §2, §3
It has been known that the concentration of isoleucine, leucine, valine, glutamate, glutamine, tyrosine, phenylalanine, alanine, lysine, arginine and ornithine can be used as the markers of amino acid metabolism (see Rare Disease Diet Control Manual—amino acid metabolism, Foundation for Rare Disorders, pages 18, 22, 26-31, which is entirely incorporated hereinto by reference). Therefore, the integrated area of the spectrum of isoleucine (chemical shift 1.01 ppm dublet), the leucine (chemical shift 0.97 ppm triplet) and the valine (chemical shift 1.04 ppm doublet) in the serum were analyzed.

[1] = test system: gut microbiota metabolism; assay: Analysis of gut microbiota metabolism markers by NMR in serum and urine of high-fat-diet mice; type: in vivo, C57BL6/J male mice; settings: gallic acid 100 mg/kg orally daily (the third group)
Procedure: as §1, §2, §3
It has been known that the concentration of isobutyric acid, butanoic acid, hippuric acid, dimethylamine and trimethylamine can be used as the markers of the gut microbiota metabolism and reflect the change of gut microbiota. Therefore, the integrated area of the spectrum of isobutyric acid, butanoic acid, hippuric acid, dimethylamine and trimethylamine in the blood and urine were analyzed.

[2] = test system: nonalcoholic fatty liver and insulin resistance in mice induced by the high-fat-diet; assay: Liver weight, blood glucose, serum insulin and liver pathology in high-fat-diet mice; type: in vivo, C57BL6/J male mice; settings: gallic acid 50 or 100 mg/kg orally daily, compared to the high-fat-diet group
Procedure: as §1, §2

mouse = settings: cited from earlier work

O=C(O)c1cc(O)c(O)c(O)c1 [gallic acid]
glycine, integrated area of NMR spectrum (bile acid metabolism; serum): 142.91 ± 10.60 the normalized and transferred NMR signal × 10^3 | glycine, integrated area of NMR spectrum (bile acid metabolism; urine): 206.51 ± 8.45 the normalized and transferred NMR signal × 10^3 | taurine, integrated area of NMR spectrum (bile acid metabolism; urine): 489.81 ± 125.78 the normalized and transferred NMR signal × 10^3 | alanine, integrated area of NMR spectrum (amino acid metabolism): 96.11 ± 6.07 the normalized and transferred NMR signal × 10^3 | arginine, integrated area of NMR spectrum (amino acid metabolism): 30.08 ± 0.78 the normalized and transferred NMR signal × 10^3 | glutamate, integrated area of NMR spectrum (amino acid metabolism): 39.50 ± 1.39 the normalized and transferred NMR signal × 10^3 | glutamine, integrated area of NMR spectrum (amino acid metabolism): 40.61 ± 3.88 the normalized and transferred NMR signal × 10^3 | isoleucine, integrated area of NMR spectrum (amino acid metabolism): 32.29 ± 3.25 the normalized and transferred NMR signal × 10^3 | leucine, integrated area of NMR spectrum (amino acid metabolism): 109.28 ± 2.36 the normalized and transferred NMR signal × 10^3 | lysine, integrated area of NMR spectrum (amino acid metabolism): 74.93 ± 2.24 the normalized and transferred NMR signal × 10^3 | ornithine, integrated area of NMR spectrum (amino acid metabolism): 36.39 ± 1.45 the normalized and transferred NMR signal × 10^3 | phenylalanine, integrated area of NMR spectrum (amino acid metabolism): 6.44 ± 0.39 the normalized and transferred NMR signal × 10^3 | tyrosine, integrated area of NMR spectrum (amino acid metabolism): 6.78 ± 0.85 the normalized and transferred NMR signal × 10^3 | valine, integrated area of NMR spectrum (amino acid metabolism): 68.26 ± 3.46 the normalized and transferred NMR signal × 10^3 | isobutyric acid, integrated area of NMR spectrum ([1]; serum): 22.49 ± 1.55 | butanoic acid, integrated area of NMR spectrum ([1]; urine): 187.08 ± 10.46 | dimethylamine, integrated area of NMR spectrum ([1]; urine): 197.9 ± 9.20 | hippuric acid, integrated area of NMR spectrum ([1]; urine): 10.33 ± 0.90 | trimethylamine, integrated area of NMR spectrum ([1]; urine): 269.21 ± 76.77 | effect on nonalcoholic fatty liver induced by the high-fat-diet ([2]; FIGS. 1, 4A, 4B): ameliorating | effect on insulin resistance induced by the high-fat-diet ([2]; FIGS. 2, 3): ameliorating | No Observed Adverse Effect Level (NOAEL) (mouse): greater than 5000 mg/kg
